Measured values: patent US20100160454A1, “ANTIMICROBIAL AGENTS, COMPOSITIONS AND PRODUCTS CONTAINING THE SAME, AND METHODS OF USING THE COMPOSITIONS AND PRODUCTS” (Eastman Chemical Company, priority 2008, published 2010)

Legend:
Experiment in all cases: Microbiological challenge testing in BPW broth, graded subculture counts
Type in all cases: cell-based
[1] = tested on: Bacillus subtilis Wild type
Outline: (§1)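 TSB + 1% dextrose cultures, 35 ± 2 °C, ≥96 h. Inoculum calibrated by NTU vs plate counts; challenge at 10^5–10^6 CFU/mL final in BPW/1% dextrose with test material. Triplicates (butoxyethanol in duplicate). Spread plates on PCA, ≥48 h, CFU/mL = count × dilution.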

[2] = tested on: Streptococcus mutans ATCC 35668
Outline: as §1

[3] = tested on: Pseudomonas aeruginosa Wild type; details: P. aeruginosa
Outline: as §1

[4] = tested on: Aspergillus niger Wild type; details: A. niger
Outline: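 Wild-type A. niger, grown in TSB with 1% dextrose at 22 °C and on SABD until sporulation, was adjusted to 1.0×10^8 spores/vegetative cells (hemocytometer). It was inoculated in triplicate into BPW with 1% dextrose to give 10^5 to 10^6 CFU/mL at time zero. Counts were by spread plate on SABD, ≥48 h at 22 °C, CFU/mL = count × dilution factor.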

[5] = tested on: Candida albicans Wild type; details: C. albicans
Outline: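 Wild-type C. albicans grown in TSB with 1% dextrose at 22 °C, then adjusted by turbidity and hemocytometer to a 10^8 CFU/mL challenge confirmed on SABD plates. Challenge added to BPW broth containing 1% dextrose, giving 10^5 to 10^6 CFU/mL at time zero; controls in triplicate. Counts by serial dilution and spread-plating after at least 48 h incubation.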

With CC(O)CO (stereo not drawn) [PG, propylene glycol] the “B. subtillis growth grade, 3 day” value ([1]; 0.5% weight/volume) was 5 (More than 10,000 colonies estimated (thus more than 100,000 CFU/mL)), the “B. subtillis growth grade, 14 day” value ([1]; 0.5% weight/volume) was 5 (More than 10,000 colonies estimated (thus more than 100,000 CFU/mL)) and the “B. subtillis growth grade, 30 day” value ([1]; 0.5% weight/volume) was 5 (More than 10,000 colonies estimated (thus more than 100,000 CFU/mL)). The “B. subtillis growth grade, 3 day” value ([1]; 1.25% weight/volume) was 5 (More than 10,000 colonies estimated (thus more than 100,000 CFU/mL)), the “B. subtillis growth grade, 14 day” value ([1]; 1.25% weight/volume) was 4 (1000 to 10,000 colonies countable (thus 10,000 CFU/mL to 100,000 CFU/mL)) and the “B. subtillis growth grade, 30 day” value ([1]; 1.25% weight/volume) was 4 (1000 to 10,000 colonies countable (thus 10,000 CFU/mL to 100,000 CFU/mL)). The “B. subtillis growth grade, 3 day” value ([1]; 2.5% weight/volume) was 5 (More than 10,000 colonies estimated (thus more than 100,000 CFU/mL)), the “B. subtillis growth grade, 14 day” value ([1]; 2.5% weight/volume) was 4 (1000 to 10,000 colonies countable (thus 10,000 CFU/mL to 100,000 CFU/mL)) and the “B. subtillis growth grade, 30 day” value ([1]; 2.5% weight/volume) was 4 (1000 to 10,000 colonies countable (thus 10,000 CFU/mL to 100,000 CFU/mL)). For the same molecule, the “B. subtillis growth grade, 3 day” value ([1]; 5.0% weight/volume) was 5 (More than 10,000 colonies estimated (thus more than 100,000 CFU/mL)), the “B. subtillis growth grade, 14 day” value ([1]; 5.0% weight/volume) was 4 (1000 to 10,000 colonies countable (thus 10,000 CFU/mL to 100,000 CFU/mL)) and the “B. subtillis growth grade, 30 day” value ([1]; 5.0% weight/volume) was 4 (1000 to 10,000 colonies countable (thus 10,000 CFU/mL to 100,000 CFU/mL)). For the same molecule, the “S. mutans growth grade, 3 day” value ([2]; 0.5% weight/volume) was 5 (More than 10,000 colonies estimated (thus more than 100,000 CFU/mL)), the “S. mutans growth grade, 13 day” value ([2]; 0.5% weight/volume) was 5 (More than 10,000 colonies estimated (thus more than 100,000 CFU/mL)) and the “S. mutans growth grade, 30 day” value ([2]; 0.5% weight/volume) was 5 (More than 10,000 colonies estimated (thus more than 100,000 CFU/mL)). The “S. mutans growth grade, 3 day” value ([2]; 1.25% weight/volume) was 4 (1000 to 10,000 colonies countable (thus 10,000 CFU/mL to 100,000 CFU/mL)), the “S. mutans growth grade, 13 day” value ([2]; 1.25% weight/volume) was 4 (1000 to 10,000 colonies countable (thus 10,000 CFU/mL to 100,000 CFU/mL)) and the “S. mutans growth grade, 30 day” value ([2]; 1.25% weight/volume) was 4 (1000 to 10,000 colonies countable (thus 10,000 CFU/mL to 100,000 CFU/mL)). For the same molecule, the “S. mutans growth grade, 3 day” value ([2]; 2.5% weight/volume) was 4 (1000 to 10,000 colonies countable (thus 10,000 CFU/mL to 100,000 CFU/mL)), the “S. mutans growth grade, 13 day” value ([2]; 2.5% weight/volume) was 4 (1000 to 10,000 colonies countable (thus 10,000 CFU/mL to 100,000 CFU/mL)) and the “S. mutans growth grade, 30 day” value ([2]; 2.5% weight/volume) was 4 (1000 to 10,000 colonies countable (thus 10,000 CFU/mL to 100,000 CFU/mL)). For the same molecule, the “S. mutans growth grade, 3 day” value ([2]; 5.0% weight/volume) was 4 (1000 to 10,000 colonies countable (thus 10,000 CFU/mL to 100,000 CFU/mL)), the “S. mutans growth grade, 13 day” value ([2]; 5.0% weight/volume) was 4 (1000 to 10,000 colonies countable (thus 10,000 CFU/mL to 100,000 CFU/mL)) and the “S. mutans growth grade, 30 day” value ([2]; 5.0% weight/volume) was 4 (1000 to 10,000 colonies countable (thus 10,000 CFU/mL to 100,000 CFU/mL)). For the same molecule, the Grade ([3]; 0.5% (wt/vol), 3 day) was 4 (1000 to 10,000 colonies countable (thus 10,000 CFU/mL to 100,000 CFU/mL)), the Grade ([3]; 0.5% (wt/vol), 13 day) was 4 (1000 to 10,000 colonies countable (thus 10,000 CFU/mL to 100,000 CFU/mL)) and the Grade ([3]; 0.5% (wt/vol), 30 day) was 5 (More than 10,000 colonies estimated (thus more than 100,000 CFU/mL)). The Grade ([3]; 1.25% (wt/vol), 3 day) was 4 (1000 to 10,000 colonies countable (thus 10,000 CFU/mL to 100,000 CFU/mL)), the Grade ([3]; 1.25% (wt/vol), 13 day) was 4 (1000 to 10,000 colonies countable (thus 10,000 CFU/mL to 100,000 CFU/mL)) and the Grade ([3]; 1.25% (wt/vol), 30 day) was 4 (1000 to 10,000 colonies countable (thus 10,000 CFU/mL to 100,000 CFU/mL)). For the same molecule, the Grade ([3]; 2.5% (wt/vol), 3 day) was 4 (1000 to 10,000 colonies countable (thus 10,000 CFU/mL to 100,000 CFU/mL)), the Grade ([3]; 2.5% (wt/vol), 13 day) was 4 (1000 to 10,000 colonies countable (thus 10,000 CFU/mL to 100,000 CFU/mL)) and the Grade ([3]; 2.5% (wt/vol), 30 day) was 4 (1000 to 10,000 colonies countable (thus 10,000 CFU/mL to 100,000 CFU/mL)). For the same molecule, the Grade ([3]; 5.0% (wt/vol), 3 day) was 4 (1000 to 10,000 colonies countable (thus 10,000 CFU/mL to 100,000 CFU/mL)), the Grade ([3]; 5.0% (wt/vol), 13 day) was 4 (1000 to 10,000 colonies countable (thus 10,000 CFU/mL to 100,000 CFU/mL)) and the Grade ([3]; 5.0% (wt/vol), 30 day) was 4 (1000 to 10,000 colonies countable (thus 10,000 CFU/mL to 100,000 CFU/mL)). The Grade ([4]; 0.5% (wt/vol), 3 day) was 5, the Grade ([4]; 0.5% (wt/vol), 13 day) was 5 and the Grade ([4]; 0.5% (wt/vol), 30 day) was 5. For the same molecule, the Grade ([4]; 1.25% (wt/vol), 3 day) was 5, the Grade ([4]; 1.25% (wt/vol), 13 day) was 5 and the Grade ([4]; 1.25% (wt/vol), 30 day) was 5. The Grade ([4]; 2.5% (wt/vol), 3 day) was 4, the Grade ([4]; 2.5% (wt/vol), 13 day) was 5 and the Grade ([4]; 2.5% (wt/vol), 30 day) was 5. For the same molecule, the Grade ([4]; 5.0% (wt/vol), 3 day) was 4, the Grade ([4]; 5.0% (wt/vol), 13 day) was 4 and the Grade ([4]; 5.0% (wt/vol), 30 day) was 4. The Grade ([5]; 0.5% (wt/vol), 3 day) was 5 (More than 10,000 colonies estimated (thus more than 100,000 CFU/mL)), the Grade ([5]; 0.5% (wt/vol), 14 day) was 5 (More than 10,000 colonies estimated (thus more than 100,000 CFU/mL)) and the Grade ([5]; 0.5% (wt/vol), 30 day) was 5 (More than 10,000 colonies estimated (thus more than 100,000 CFU/mL)). The Grade ([5]; 1.25% (wt/vol), 3 day) was 5 (More than 10,000 colonies estimated (thus more than 100,000 CFU/mL)), the Grade ([5]; 1.25% (wt/vol), 14 day) was 5 (More than 10,000 colonies estimated (thus more than 100,000 CFU/mL)) and the Grade ([5]; 1.25% (wt/vol), 30 day) was 5 (More than 10,000 colonies estimated (thus more than 100,000 CFU/mL)). The Grade ([5]; 2.5% (wt/vol), 3 day) was 4 (1000 to 10,000 colonies countable (thus 10,000 CFU/mL to 100,000 CFU/mL)), the Grade ([5]; 2.5% (wt/vol), 14 day) was 4 (1000 to 10,000 colonies countable (thus 10,000 CFU/mL to 100,000 CFU/mL)) and the Grade ([5]; 2.5% (wt/vol), 30 day) was 4 (1000 to 10,000 colonies countable (thus 10,000 CFU/mL to 100,000 CFU/mL)). For the same molecule, the Grade ([5]; 5.0% (wt/vol), 3 day) was 3 (100 to 1000 colonies (thus 1000 to 10,000 CFU/mL)), the Grade ([5]; 5.0% (wt/vol), 14 day) was 4 (1000 to 10,000 colonies countable (thus 10,000 CFU/mL to 100,000 CFU/mL)) and the Grade ([5]; 5.0% (wt/vol), 30 day) was 4 (1000 to 10,000 colonies countable (thus 10,000 CFU/mL to 100,000 CFU/mL)).
With CCCCOCCO [EB, 2-butoxyethanol] the “B. subtillis growth grade, 3 day” value ([1]; 2.5% weight/volume) was 4 (1000 to 10,000 colonies countable (thus 10,000 CFU/mL to 100,000 CFU/mL)), the “B. subtillis growth grade, 14 day” value ([1]; 2.5% weight/volume) was 4 (1000 to 10,000 colonies countable (thus 10,000 CFU/mL to 100,000 CFU/mL)) and the “B. subtillis growth grade, 30 day” value ([1]; 2.5% weight/volume) was 4 (1000 to 10,000 colonies countable (thus 10,000 CFU/mL to 100,000 CFU/mL)). For the same molecule, the “B. subtillis growth grade, 3 day” value ([1]; 5.0% weight/volume) was 1 (0 to 51 colonies counted (thus 10 to 510 CFU/mL based on 0.1-mL sample)), the “B. subtillis growth grade, 14 day” value ([1]; 5.0% weight/volume) was 0 and the “B. subtillis growth grade, 30 day” value ([1]; 5.0% weight/volume) was 0. For the same molecule, the “S. mutans growth grade, 3 day” value ([2]; 2.5% weight/volume) was 4 (1000 to 10,000 colonies countable (thus 10,000 CFU/mL to 100,000 CFU/mL)), the “S. mutans growth grade, 13 day” value ([2]; 2.5% weight/volume) was 4 (1000 to 10,000 colonies countable (thus 10,000 CFU/mL to 100,000 CFU/mL)) and the “S. mutans growth grade, 30 day” value ([2]; 2.5% weight/volume) was 4 (1000 to 10,000 colonies countable (thus 10,000 CFU/mL to 100,000 CFU/mL)). The “S. mutans growth grade, 3 day” value ([2]; 5.0% weight/volume) was 0, the “S. mutans growth grade, 13 day” value ([2]; 5.0% weight/volume) was 0 and the “S. mutans growth grade, 30 day” value ([2]; 5.0% weight/volume) was 0. For the same molecule, the Grade ([3]; 2.5% (wt/vol), 3 day) was 4 (1000 to 10,000 colonies countable (thus 10,000 CFU/mL to 100,000 CFU/mL)), the Grade ([3]; 2.5% (wt/vol), 13 day) was 4 (1000 to 10,000 colonies countable (thus 10,000 CFU/mL to 100,000 CFU/mL)) and the Grade ([3]; 2.5% (wt/vol), 30 day) was 4 (1000 to 10,000 colonies countable (thus 10,000 CFU/mL to 100,000 CFU/mL)). For the same molecule, the Grade ([3]; 5.0% (wt/vol), 3 day) was 0, the Grade ([3]; 5.0% (wt/vol), 13 day) was 0 and the Grade ([3]; 5.0% (wt/vol), 30 day) was 0. For the same molecule, the Grade ([4]; 2.5% (wt/vol), 3 day) was 4, the Grade ([4]; 2.5% (wt/vol), 13 day) was 4 and the Grade ([4]; 2.5% (wt/vol), 30 day) was 4. It also gave a Grade ([4]; 5.0% (wt/vol), 3 day) of 2.5, a Grade ([4]; 5.0% (wt/vol), 13 day) of 0 and a Grade ([4]; 5.0% (wt/vol), 30 day) of 0. For the same molecule, the Grade ([5]; 2.5% (wt/vol), 3 day) was 4 (1000 to 10,000 colonies countable (thus 10,000 CFU/mL to 100,000 CFU/mL)), the Grade ([5]; 2.5% (wt/vol), 14 day) was 4 (1000 to 10,000 colonies countable (thus 10,000 CFU/mL to 100,000 CFU/mL)) and the Grade ([5]; 2.5% (wt/vol), 30 day) was 4 (1000 to 10,000 colonies countable (thus 10,000 CFU/mL to 100,000 CFU/mL)). For the same molecule, the Grade ([5]; 5.0% (wt/vol), 3 day) was 2 (52 to 100 colonies counted (thus 520 to 1000 CFU/mL)), the Grade ([5]; 5.0% (wt/vol), 14 day) was 0 and the Grade ([5]; 5.0% (wt/vol), 30 day) was 0.
